# “Also recorded” adds a separate entry of the source.
# What was measured:
# PAR4 [1] = molecular target: T1, PAR4 (Homo sapiens, UniProt Q96RI0); assay: PAC-1 binding assay; assay type: cell-based; settings: for PAR4 activity (in words): PAR4-AP, PAC-1
# T1 sequence (Q96RI0 18-385): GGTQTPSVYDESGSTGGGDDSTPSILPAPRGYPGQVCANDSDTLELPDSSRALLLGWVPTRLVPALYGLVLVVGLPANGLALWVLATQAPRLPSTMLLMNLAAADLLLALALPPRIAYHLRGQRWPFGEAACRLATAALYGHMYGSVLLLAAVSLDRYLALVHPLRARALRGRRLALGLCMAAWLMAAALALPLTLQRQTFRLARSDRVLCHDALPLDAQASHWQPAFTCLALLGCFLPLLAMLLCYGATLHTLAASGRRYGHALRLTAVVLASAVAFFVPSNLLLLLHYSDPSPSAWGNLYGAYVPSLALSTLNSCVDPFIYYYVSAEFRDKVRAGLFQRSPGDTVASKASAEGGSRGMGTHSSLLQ
# [2] = Predicted hepatic clearance in rat microsomes; assay type: in vitro ADME
# In vivo rat PK = settings: plasma, iv, 0.2 mg/kg
# [3] = Predicted hepatic clearance in human microsomes; assay type: in vitro ADME
# PAR4 [4] = molecular target: T1, PAR4; assay: Progressive fold-shift inhibition assay/Schild analysis; assay type: cell-based
# PAR4 [5] = molecular target: T2, PAR4 (Homo sapiens, UniProt Q96RI0); settings: literature antagonists; cited from earlier work
# T2 sequence (Q96RI0 48-385): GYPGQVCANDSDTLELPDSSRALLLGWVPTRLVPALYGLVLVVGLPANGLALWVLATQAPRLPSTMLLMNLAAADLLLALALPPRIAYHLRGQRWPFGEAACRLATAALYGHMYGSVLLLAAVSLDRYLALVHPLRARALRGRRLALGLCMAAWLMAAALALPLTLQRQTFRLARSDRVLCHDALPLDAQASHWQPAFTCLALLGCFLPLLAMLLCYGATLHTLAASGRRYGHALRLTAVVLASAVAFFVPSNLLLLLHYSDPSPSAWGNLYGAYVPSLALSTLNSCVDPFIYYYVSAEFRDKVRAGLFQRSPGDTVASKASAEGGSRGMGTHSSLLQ
# PAR4 [6] = settings: read-out: EC50 for PAR4; thrombin as agonist; background statement; cited from earlier work
compound,measurement,setting,value
CSc1ncc(-c2c(CO)n(Cc3ccc(F)cc3F)c3ccc(OC(F)(F)F)cc23)cn1 [10c],IC50,PAR4 [1],1490 nM
COc1ccc(-c2c(CO)n(C)c3ccc(C(F)(F)F)cc23)cn1 [9a],PAR4 activity (in words),PAR4 [1],devoid of PAR4 activity
COc1ccc(-c2c(CO)n(Cc3ccccc3)c3ccc(OC(F)(F)F)cc23)cn1 [9b],PAR4 activity (in words),PAR4 [1],devoid of PAR4 activity
COc1nn2cc(-c3c(CO)n(Cc4ccccc4Cl)c4ccc(OC(F)(F)F)cc34)nc2s1 [10h],rat CLHEP,[2],36.1 mL/min/kg
same,clearance at 6 h,In vivo rat PK,45 mL/min/kg
same,human CLHEP,[3],1.1 mL/min/kg
same,mode of PAR4 inhibition,PAR4 [4],complex mode of PAR4 inhibition; also recorded: mixed competitive/noncompetitive mechanism of action
COc1ccc(-c2c(CO)n(Cc3cccc(Cl)c3)c3ccc(OC(F)(F)F)cc23)cn1 [9h],PAR4 activity (in words),PAR4 [1],devoid of PAR4 activity
COc1cccc(Cn2c(CO)c(-c3ccc(OC)nc3)c3cc(C(F)(F)F)ccc32)c1 [9d],PAR4 activity (in words),PAR4 [1],devoid of PAR4 activity
COc1ccc(-c2c(CO)n(Cc3ccccc3F)c3ccc(OC(F)(F)F)cc23)cn1 [9c],PAR4 activity (in words),PAR4 [1],devoid of PAR4 activity
COc1ccc(-c2c(CO)n(Cc3ccccc3Cl)c3cc(OC(F)(F)F)ccc23)cn1 [11d],IC50,PAR4 [1],930 nM
CCOC(=O)c1ccc(-c2nn(Cc3ccccc3)c3ccccc23)cc1 [compound 1],activity upon γ-thrombin activation (in words),PAR4 [5],lack of activity
OCc1c(-c2cncnc2)c2cc(OC(F)(F)F)ccc2n1Cc1ccc(F)cc1F [10b],PAR4 activity (in words),PAR4 [1],inactive
Thrombin,EC50,PAR4 [6],~5 nM
COc1ccc(-c2c(CO)n(Cc3cccc(F)c3)c3ccc(OC(F)(F)F)cc23)cn1 [9e],PAR4 activity (in words),PAR4 [1],devoid of PAR4 activity
